Experimental data as given in patent US6093732A, “4-hydroxyquinoline-3-carboxamides and hydrazides as antiviral agents” (Pharmacia & Upjohn Company, priority 1998, dated 2000).
pIC50: −log10 of the molar value.

target: T1, HCMV polymerase (Human cytomegalovirus, UniProt P08546); assay: HCMV polymerase scintillation proximity assay (SPA), modified version; type: biochemical; settings: CMV polymerase; Table 1; modified assay with 4.5 mM DTT, compounds in 100% DMSO; read-out: Antiviral Selective Polymerase IC50 Values, CMV
T1 construct: made in house; host or cells: recombinant baculovirus-infected SF-9 cells
Description: The HCMV polymerase assay is performed using a scintillation proximity assay (SPA) as described in several references, such as N. D. Cook, et al., Pharmaceutical Manufacturing International, pages 49-53 (1992); K. Takeuchi, Laboratory Practice, September issue (1992); U.S. Pat. No. 4,568,649 (1986); which are incorporated by reference herein. Reactions are performed in 96-well plates. The assay is conducted in 100 μl volume with 5.4 mM HEPES (pH 7.5), 11.7 mM KCl, 4.5 mM MgCl2, 0.36 mg/ml BSA, and 90 nM ^3 H-dTTP. Assays are run with and without CHAPS, (3-[(3-Cholamidopropyl)-dimethylammonio]-1-propane-sulfonate) at a final concentration of 2 mM. HCMV polymerase is diluted in enzyme dilution buffer containing 50% glycerol, 250 mM NaCl, 10 mM HEPES (pH 7.5), 100 μg/ml BSA, and 0.01% sodium azide. The HCMV polymerase, which is expressed in recombinant baculovirus-infected SF-9 cells and purified according to literature procedures, is added at 10% (or 10 μl) of the final reaction volume, i.e., 100 μl. Compounds are diluted in 50% DMSO and 10 μl are added to each well. Control wells contain an equivalent concentration of DMSO. Unless noted otherwise, reactions are initiated via the addition of 6 nM biotinylated poly(dA)-oligo(dT) template/primer to reaction mixtures containing the enzyme, substrate, and compounds of interest. Plates are incubated in a 25° C. or 37° C. H2 O bath and terminated via the addition of 40 μl/reaction of 0.5 M EDTA (pH 8) per well. Reactions are terminated within the time-frame during which substrate incorporation is linear and varied depending upon the enzyme and conditions used, i.e., 30 min. for HCMV polymerase. Ten μl of streptavidin-SPA beads (20 mg/ml in PBS/10% glycerol) are added following termination of the reaction. Plates are incubated 10 min. at 37° C., then equilibrated to room temperature, and counted on a Packard Topcount. Linear regressions are performed and IC50 's are calculated using computer software.
A modified version of the above HCMV polymerase assay is performed as described above, but with the following changes: Compounds are diluted in 100% DMSO until final dilution into assay buffer. In the previous assay, compounds are diluted in 50% DMSO. 4.5 mM dithiotherotol (DTT) is added to the polymerase buffer. […] Other viral polymerase assays are performed using procedures similar to those described above.

T1 sequence (P08546 whole entry): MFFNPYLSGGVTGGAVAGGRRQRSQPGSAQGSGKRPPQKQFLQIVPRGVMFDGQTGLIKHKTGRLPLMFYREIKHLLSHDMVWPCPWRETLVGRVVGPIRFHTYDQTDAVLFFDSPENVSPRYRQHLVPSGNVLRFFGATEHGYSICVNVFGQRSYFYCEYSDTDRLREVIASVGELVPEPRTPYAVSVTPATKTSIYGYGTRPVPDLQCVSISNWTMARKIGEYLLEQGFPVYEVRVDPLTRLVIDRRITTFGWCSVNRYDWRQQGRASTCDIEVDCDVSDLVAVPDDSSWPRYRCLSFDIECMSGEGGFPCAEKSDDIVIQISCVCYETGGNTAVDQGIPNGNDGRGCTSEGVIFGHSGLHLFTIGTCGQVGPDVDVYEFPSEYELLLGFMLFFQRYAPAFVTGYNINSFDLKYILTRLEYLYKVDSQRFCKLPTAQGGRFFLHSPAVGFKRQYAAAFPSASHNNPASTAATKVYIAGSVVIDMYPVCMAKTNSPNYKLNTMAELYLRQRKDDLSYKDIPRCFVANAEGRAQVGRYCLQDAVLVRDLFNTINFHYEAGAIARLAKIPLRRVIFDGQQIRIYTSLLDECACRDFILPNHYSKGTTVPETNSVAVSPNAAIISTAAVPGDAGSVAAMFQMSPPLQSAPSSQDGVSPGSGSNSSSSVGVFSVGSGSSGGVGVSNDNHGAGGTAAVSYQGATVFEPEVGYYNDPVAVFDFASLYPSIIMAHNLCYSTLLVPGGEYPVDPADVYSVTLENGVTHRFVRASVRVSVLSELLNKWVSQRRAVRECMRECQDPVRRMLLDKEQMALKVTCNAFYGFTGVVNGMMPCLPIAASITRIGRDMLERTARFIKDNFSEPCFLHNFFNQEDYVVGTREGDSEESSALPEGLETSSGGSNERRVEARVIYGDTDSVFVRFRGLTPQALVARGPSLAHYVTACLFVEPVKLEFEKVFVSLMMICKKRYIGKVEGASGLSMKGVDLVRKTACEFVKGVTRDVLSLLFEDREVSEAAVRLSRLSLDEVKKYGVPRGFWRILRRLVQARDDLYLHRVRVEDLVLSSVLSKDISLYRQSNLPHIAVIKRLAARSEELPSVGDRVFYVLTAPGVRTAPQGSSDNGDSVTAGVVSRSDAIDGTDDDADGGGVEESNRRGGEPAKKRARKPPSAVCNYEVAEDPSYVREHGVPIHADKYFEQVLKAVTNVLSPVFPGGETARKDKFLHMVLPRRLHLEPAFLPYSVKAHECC

Row | SMILES | pIC50
1 | CN(CCS(=O)(=O)O)C(=O)CCCCCCC(=O)OCCCc1cc(F)c2ncc(C(=O)NCc3ccc(Cl)cc3)c(O)c2c1 | 4.94
2 | CN(CCS(=O)(=O)O)C(=O)CCCCCCC(=O)OCC#Cc1ccc2ncc(C(=O)NCc3ccc(Cl)cc3)c(O)c2c1 | 4.78
3 | O=C(NCc1ccc(Cl)cc1)c1cnc2c(F)cc(O)cc2c1O [Example 3, N-[(4-Chlorophenyl)methyl]-8-fluoro-4,6-dihydroxy-3-quinoline-carboxamide] | 4.62
4 | O=C(NCc1ccc(Cl)cc1)c1cnc2c(F)cc(Br)cc2c1O [Example 4] | 5.47
5 | O=C(NCc1ccc(Cl)cc1)c1cnc2c(F)cc(I)cc2c1O [Example 5, N-[(4-Chlorophenyl)methyl]-8-fluoro-4-hydroxy-6-iodo-3-quinolinecarboxamide] | 5.24
6 | O=C(NCc1ccc(Cl)cc1)c1cnc2cc(C(F)(F)F)cc(C(F)(F)F)c2c1O [Example 8, N-[(4-Chlorophenyl)methyl]-4-hydroxy-5,7-bis(trifluoromethyl)-3-quinolinecarboxamide] | 4.26
7 | Cc1ccc2c(O)c(C(=O)NCc3ccc(Cl)cc3)cnc2c1 [Example 11, N-[(4-Chlorophenyl)methyl]-4-hydroxy-7-methyl-3-quinoline-carboxamide] | 4.67
8 | O=C(NCc1ccc(Cl)cc1)c1cnc2c(F)ccc(F)c2c1O [Example 17, N-[(4-Chlorophenyl)methyl]-5,8-difluoro-4-hydroxy-3-quinolinecarboxamide] | 5.48
9 | O=C(NCc1ccc(Cl)cc1)c1cnc2c(F)c(F)ccc2c1O [Example 18, N-[(4-Chlorophenyl)methyl]-7,8-difluoro-4-hydroxy-3-quinoline-carboxamide] | > 5.51
10 | COc1cccc2c(O)c(C(=O)NCc3ccc(Cl)cc3)cnc12 [Example 20, N-[(4-Chlorophenyl)methyl]-4-hydroxy-8-methoxy-3-quinoline-carboxamide] | 5.19
11 | O=C(NCc1ccc(Cl)cc1)c1cnc2ccc(Cl)cc2c1O [Example 21, 6-Chloro-N-[(4-chlorophenyl)methyl]-4-hydroxy-3-quinoline-carboxamide] | 5.36
12 | Cc1ccc2ncc(C(=O)NCc3ccc(Cl)cc3)c(O)c2c1 [Example 22, N-[(4-Chlorophenyl)methyl]-4-hydroxy-6-methyl-3-quinoline-carboxamide] | 5.40
13 | COc1ccc2ncc(C(=O)NCc3ccc(Cl)cc3)c(O)c2c1 [Example 23, N-[(4-Chlorophenyl)methyl]-4-hydroxy-6-methoxy-3-quinoline-carboxamide] | 5.47
14 | N#Cc1ccc2ncc(C(=O)NCc3ccc(Cl)cc3)c(O)c2c1 [Example 24, N-[(4-Chlorophenyl)methyl]-6-cyano-4-hydroxy-3-quinoline-carboxamide] | 5.31
15 | CN(C)c1ccc2c(O)c(C(=O)NCc3ccc(Cl)cc3)cnc2c1 [Example 27, N-[(4-Chlorophenyl)methyl]-7-(dimethylamino)-4-hydroxy-3-quinolinecarboxamide] | 4.80
16 | O=C(NCc1ccc(Cl)cc1)c1cnc2cc(NS(=O)(=O)c3ccccc3)ccc2c1O [Example 33, N-[(4-Chlorophenyl)methyl]-4-hydroxy-7-[(phenylsulfonyl)-amino]-3-quinolinecarboxamide] | 4.61
17 | O=C(NCc1ccc(Cl)cc1)c1cnc2cc(NS(=O)(=O)Cc3ccccc3)ccc2c1O [Example 34, N-[(4-Chlorophenyl)methyl]-4-hydroxy-7-[[(phenylmethyl)-sulfonyl]amino]-3-quinolinecarboxamide] | 4.75
18 | O=C(NCc1ccc(Cl)cc1)c1cnc2cc(NS(=O)(=O)c3ccc(Cl)cc3)ccc2c1O [Example 35, N-[(4-Chlorophenyl)methyl]-7-[[(4-chlorophenyl)sulfonyl]amino]-4-hydroxy-3-quinolinecarboxamide] | 5.04
19 | O=C(NNc1ccc(Cl)cc1)c1cnc2c(F)cccc2c1O [Example 36, 8-Fluoro-4-hydroxy-3-quinolinecarboxylic acid 2-(4-chlorophenyl) hydrazide] | 5.11
20 | Cc1cc(F)c2ncc(C(=O)NCc3ccc(Cl)cc3)c(O)c2c1 [Example 38, N-[(4-Chlorophenyl)methyl]-8-fluoro-4-hydroxy-6-methyl-3-quinolinecarboxamide] | 5.49

Results, then the compound that gave them:

Row | pIC50 | SMILES
21 | > 5.51 | O=C(NCc1ccc(Cl)cc1)c1cnc2cc(I)ccc2c1O [Example 39, N-[(4-Chlorophenyl)methyl]-4-hydroxy-7-iodo-3-quinolinecarboxamide]
22 | 5.46 | O=C(NCc1ccc(Cl)cc1)c1cnc2ccc(I)cc2c1O [Example 40, N-[(4-Chlorophenyl)methyl]-4-hydroxy-6-iodo-3-quinoline-carboxamide]
23 | 4.92 | N#CCc1ccc2ncc(C(=O)NCc3ccc(Cl)cc3)c(O)c2c1 [Example 41, N-[(4-Chlorophenyl)methyl]-6-(cyanomethyl)-4-hydroxy-3-quinolinecarboxamide]
24 | 4.72 | O=C(NCc1ccc(Cl)cc1)c1cnc2cccc(O)c2c1O [Example 42, N-[(4-Chlorophenyl)methyl]-4,5-dihydroxy-3-quinolinecarboxamide]
25 | 5.89 | O=C(NCc1ccc(Cl)cc1)c1cnc2c(Cl)c(Cl)ccc2c1O [Example 43, 7,8-Dichloro-N-[(4-chlorophenyl)methyl]-4-hydroxy-3-quinolinecarboxamide]
26 | 4.54 | O=C(NCc1ccc(Cl)cc1)c1cnc2ccc(O)cc2c1O [Example 44, N-[(4-Chlorophenyl)methyl]-4,6-dihydroxy-3-quinoline-carboxamide]
27 | 5.34 | O=C(NCc1ccc(Cl)cc1)c1cnc2c(O)cccc2c1O [Example 45, N-[(4-Chlorophenyl)methyl]-4,8-dihydroxy-3-quinoline-carboxamide]
28 | 5.55 | O=C(NCc1ccc(Cl)cc1)c1cnc2c(Cl)cccc2c1O [Example 46, 8-Chloro-N-[(4-chlorophenyl)methyl]-4-hydroxy-3-quinolinecarboxamide]
29 | 4.40 | O=C(NCc1ccc(Cl)cc1)c1cnc2ccc(S(=O)(=O)Nc3ccnn3-c3ccccc3)cc2c1O [Example 47, N-[(4-Chlorophenyl)methyl]-4-hydroxy-6-[[(1-phenyl-1H-pyrazol-5-yl)amino]sulfonyl]-3-quinolinecarboxamide]
30 | 5.19 | N#Cc1cccc2c(O)c(C(=O)NCc3ccc(Cl)cc3)cnc12 [Example 48, N-[(4-Chlorophenyl)methyl]-8-cyano-4-hydroxy-3-quinoline-carboxamide]
31 | 5.43 | O=C(NCc1ccc(Cl)cc1)c1cnc2c([N+](=O)[O-])cccc2c1O [Example 49, N-[(4-Chlorophenyl)methyl]-4-hydroxy-8-nitro-3-quinoline-carboxamide]
32 | 5.16 | Cc1c(N)ccc2c(O)c(C(=O)NCc3ccc(Cl)cc3)cnc12 [Example 50, 7-Amino-N-[(4-chlorophenyl)methyl]-4-hydroxy-8-methyl-3-quinolinecarboxamid]
33 | 4.91 | N#Cc1cc(F)c2ncc(C(=O)NCc3ccc(Cl)cc3)c(O)c2c1 [Example 51, N-[(4-Chlorophenyl)methyl]-6-cyano-8-fluoro-4-hydroxy-3-quinolinecarboxamide]
34 | 4.96 | NC(=S)c1cc(F)c2ncc(C(=O)NCc3ccc(Cl)cc3)c(O)c2c1 [Example 52, 6-(Aminothioxomethyl)-N-[(4-chlorophenyl)methyl]-8-fluoro-4-hydroxy-3-quinolinecarboxamide]
35 | 5.07 | O=C(NNc1ccc(Cl)cc1)c1cnc2c(F)cc(I)cc2c1O [Example 54, 8-Fluoro-4-hydroxy-6-iodo-3-quinolinecarboxylic acid 2-(4-chlorophenyl)hydrazide]
36 | 5.30 | Cc1cc(F)c2ncc(C(=O)NNc3ccc(Cl)cc3)c(O)c2c1 [Example 55, 8-Fluoro-4-hydroxy-6-methyl-3-quinolinecarboxylic acid 2-(4-chlorophenyl)hydrazide]
37 | 5.51 | O=C(NCc1ccc(Cl)cc1)c1cnc2cc(Cl)ccc2c1O [Example 56, 7-Chloro-N-((4-chlorophenyl)methyl)-4-hydroxy-3-quinoline-carboxamide]
38 | 5.28 | O=C(NCc1ccc(Cl)cc1)c1cnc2ccc(Br)cc2c1O [Example 57, 6-Bromo-N-((4-chlorophenyl)methyl)-4-hydroxy-3-quinoline-carboxamide]
39 | 6.00 | O=C(NCc1ccc(Cl)cc1)c1cnc2ccc(-c3ccccc3)cc2c1O [Example 58, N-((4-Chlorophenyl)methyl)-4-hydroxy-6-phenyl-3-quinoline-carboxamide]
